Tests used:
Caco-2 monolayer cells = experiment: Caco-2 apical to basolateral (A to B) absorption/transport assay; conditions: for % Absorbed: Caco-2 monolayer, 37° C., 5% CO2; for % Absorbed / Trsp: apical to basolateral, 2 hours incubation; for Trsp: Caco-2 transport rate; for Ratio (Caco-2 transport ratio): ratio of the transport rate to the transport rate of the reference compound mannitol
Text: (§1) Values for Caco-2 transport are also expressed herein as transport ratios that represent the ratio of the transport rate for the proband (e.g. tri(alkylcarboxylato) gallium(III) compound) to the transport rate of a reference compound. Mannitol was the reference compound used in the calculation of the Caco-2 transport ratios discussed herein.
(§2) The evaluation protocol of the apical to basolateral (A to B) absorption of a test article in Caco-2 monolayer cells is known to those of skill in the art as follows.
(§3) Caco-2 cells are plated in individual Transwells® in 24-well tissue culture plates and cultured for 3 days to establish the cultures. After 3 days, the cells are tested for transepithelial electrical resistance (TEER) as a measure of the formation of tight junctions between cells. Only cells with a TEER equal to or greater than about 330 Ω·cm^2 cm^2 are used. The proband or the control article (reference) is applied to the apical side of Caco-2 cells and incubated for 2 hours (37° C., 5% CO2). At t=2 hr, the media in each well are collected and stored until later analysis. Aliquots of the dosing solution are retained for analysis along with the samples.
(§4) For test samples, the analysis is repeated three times while the N value for all the control groups is six. The controls are [^3H]propranolol for fast transport and [^3H]mannitol for slow transport.
(§5) The gallium product proband and dosing solution samples are analyzed by inductive coupled plasma optical emission spectrometry (ICP-OCP) to measure gallium concentration. Any non-gallium test articles and dosing solution samples are analyzed by HPLC. Positive controls are analyzed using scintillation counting.

[1] = as above; conditions: human, Caco-2
Text: as §1, §2, §3, §4, §5

% Absorbed (Caco-2 monolayer cells) [%] | Trsp (Caco-2 monolayer cells) [nm/s] | Ratio (Caco-2 transport ratio) (Caco-2 monolayer cells) | Papp A→B at 2 h [1] [×10⁻⁶ cm/s] | Compound
24.793 | 107.610 | 9.5 | – | Cc1occc(=O)c1[O-].Cc1occc(=O)c1[O-].Cc1occc(=O)c1[O-].[Ga+3] [Gallium Maltolate]
2.603 | – | 1 | 1.13 | OC[C@@H](O)[C@@H](O)[C@H](O)[C@H](O)CO [Mannitol]
9.890 | 42.930 | 3.8 | – | Tri(octanoato) Gallium (III) Product [Example 1]
72.000 | 312.500 | 27.7 | – | Tri(palmitato) Gallium (III) Product [Example 2]
31.579 | 137.060 | 12.1 | – | Tri(palmitato) Gallium (III) Product [Example 3]

Compound | % Absorbed (Caco-2 monolayer cells) [%] | Trsp (Caco-2 monolayer cells) [nm/s] | Ratio (Caco-2 transport ratio) (Caco-2 monolayer cells) | Papp A→B at 2 h [1] [×10⁻⁶ cm/s]
CC(C)NCC(O)COc1cccc2ccccc12 (stereo not drawn) [Propranalol] | 24.118 | 104.679 | 9.3 | –

— patent US7119217B2, “Tri(alkylcarboxylato)gallium (III) products and pharmaceutical compositions containing them” (Genta Incorporated, priority 2002, dated 2006)
